# Biological target: T1, MC4R (Homo sapiens, UniProt P32245)
# T1 construct: expressed in transfected cells; host or cells: HEK (Human Embryonic Kidney) permanent expression cell line HEK MC4R-Luc, co-expressing CRE-luciferase
# Experiment: MCR agonistic activity (luciferase assay / cAMP accumulation assay) on MC4R
# Format: cell-based
# Conditions: HEK cell lines expressing MC4R; method A (CRE-luciferase) or B (cAMP accumulation), not said which; read-out: EC50 value, agonistic activity to MC4R (range per group of Examples)
# Method: Physiological activity of the compounds of the present invention was assessed by measuring agonistic activity as well as binding activity for melanocortin receptors (MCR) according to methods A and B explained as follows.
# As one of the methods to measure MCR agonistic activity of the compound according to the present invention, the expression level of a marker gene (for example, luciferase) which increases proportionally according to the increase of cAMP content in the cell, was measured.
# First, permanent expression HEK (Human Embryonic Kidney) cell lines (HEK MC1R-Luc, MC3R-Luc, MC4R-Luc or MC5R-Luc) expressing the MCR gene of each subtype together with luciferase gene (CRE-LUC) under the control of CRE (cAMP Response Element) were constructed. The above cell lines were incubated in an incubator with 6% CO2 atmosphere at 37° C. using selection medium, DMEM(Dulbecco's Modified Eagles Medium) containing 10% heat-inactivated fetal bovine serum (Gibco/BRL), 100 unit/ml, penicillin (Gibco/BRL), 100 unit/ml streptomycin (Gibco/BRL), and 200 μg/ml geneticin (G418) (Gibco/BRL). When the cell covered 70% of total surface of the culture dish with 100 mm diameter, the culture dish was rinsed one time with 10 ml Phosphate Buffered Saline(PBS) free of Ca^++ and Mg^++, and then 3 ml PBS solution containing 0.05% trypsin and 0.53 mM EDTA was added thereto. After the trypsin/EDTA solution was removed, the cell lines were incubated in an thermostatic incubator for 1 minute at 37° C., and resuspended in 10 ml selection medium and centrifuged for 5 minutes at 1500 rpm. The supernatant was discarded and the settled cells were resuspended in 5 ml selection medium free of Phenol Red. The resulting cell-suspension was plated onto each well of 96-well culture plates for Luminometer(Costar) with a concentration of 5×10^4 cell in 100 μl culture medium for each well and incubated in the incubator with 6% CO2 atmosphere at 37° C. for 18 hours. With MCR agonists (Example compounds) diluted stepwise using the above culture medium, the cells were treated under the condition of the final DMSO concentration not exceeding 1%, and incubated for 5 hours in the atmosphere of 6% CO2 at 37° C. Then, 50 μl Bright-Glo (Promega) was added to each well. After allowing the treated cells to be at room temperature for 15 minutes, luminescence was measured for each well by using luminometer (Victor). The level of luminescence induced by the stepwise-diluted agonist was converted to relative % value to those by the treatment of 10 nM NDP-MSH. The EC50 indicates the concentration of each agonist for inducing 50% of maximal luminescence by each agonist and this value was measured by a statistical software (Prizm).
# B. cAMP Accumulation Assay
# As another method to measure MCR agonistic activity of the compound according to the present invention, an increase of cAMP amount in the cell was measured.
# First, permanent expression HEK (Human Embryonic Kidney) cell lines (HEK MC1R-Luc, MC3R-Luc, MC4R-Luc or MCSR-Luc) expressing the MCR gene of each subtype were plated onto each well of 24-well culture plates for Luminometer(Costar) with a concentration of 2×10^5 cell in 1 ml culture medium for each well, and then incubated in an incubator with 6% CO2 atmosphere at 37° C. for 24 hours. The medium was removed from each well followed by rinsing with 0.5 ml cold DMEM one time. With MCR agonists (Example compounds) diluted stepwise using 200 μl DMEM including 500 μM IBMX (isobutylmethylxanthine), the cells were treated under the condition of the final DMSO concentration not exceeding 1%, and incubated for 30 minutes in the atmosphere of 6% CO2 at 37° C. Then, the cAMP amount in each cell was measured using Amersham cAMP assay Kit (TRK432).
# More specifically, 14.4 μl of 6M PCA (60%) was added to each well, and allowed to be in ice for 10 minutes, and 200 μl sample was taken from each well and transferred to microcentrifuge tube. […]
# T1 sequence (P32245 whole entry, species assumed): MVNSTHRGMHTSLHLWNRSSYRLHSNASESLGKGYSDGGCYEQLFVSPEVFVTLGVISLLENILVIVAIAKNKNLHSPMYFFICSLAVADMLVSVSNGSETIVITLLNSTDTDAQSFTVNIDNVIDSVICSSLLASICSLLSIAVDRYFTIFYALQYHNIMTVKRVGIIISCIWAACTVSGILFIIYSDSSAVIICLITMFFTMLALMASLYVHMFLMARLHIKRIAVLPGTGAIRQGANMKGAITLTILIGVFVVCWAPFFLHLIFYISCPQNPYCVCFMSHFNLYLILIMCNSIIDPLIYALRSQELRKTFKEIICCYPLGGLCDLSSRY
row,EC50 [nM],Compound
1,0.1 to 10,"CN1CCN(C(=O)[C@@H]2C[C@H](N(C(=O)C(C)(C)CO)C3CCC(C)(C)CC3)CN2C(=O)[C@@H]2CN(C(C)(C)C)C[C@H]2c2ccc(F)cc2F)CC1 [Example 15, N-{(3S,5S)-1-{[(3S,4R)-1-tert-butyl-4-(2,4-difluorophenyl)pyrrolidin-3-yl]carbonyl}-5-[(4-methylpiperazin-1-yl)carbonyl]pyrrolidin-3-yl}-N-(4,4-dimethylcyclohexyl)-3-hydroxy-2,2-dimethylpropanamide]"
2,0.1 to 10,"CN1CCN(C(=O)[C@@H]2C[C@H](N(C(=O)[C@@H]3CCCO3)[C@H]3CC[C@@H](C)CC3)CN2C(=O)[C@@H]2CN(C(C)(C)C)C[C@H]2c2ccc(Cl)cc2)CC1 [Example 16, (2S)-N-{(3S,5S)-1-{[(3S,4R)-1-tert-butyl-4-(4-chlorophenyl)pyrrolidin-3-yl]carbonyl}-5-[(4-methylpiperazin-1-yl)carbonyl]pyrrolidin-3-yl}-N-(cis-4-methylcyclohexyl)tetrahydrofuran-2-carboxamide]"
3,0.1 to 10,"CN1CCN(C(=O)[C@@H]2C[C@H](N(C(=O)C(C)(C)C)[C@H]3CC[C@@H](C)CC3)CN2C(=O)[C@@H]2CN(C(C)(C)C)C[C@H]2c2ccc(Cl)cc2)CC1 [Example 17, N-{(3S,5S)-1-{[(3S,4R)-1-tert-butyl-4-(4-chlorophenyl)pyrrolidin-3-yl]carbonyl}5-[(4-methylpiperazin-1-yl)carbonyl]pyrrolidin-3-yl}-2,2-dimethyl-N-(cis-4-methylcyclohexyl)propanamide]"
4,0.1 to 10,"CN1CCN(C(=O)[C@@H]2C[C@H](N(C(=O)C(C)(C)C)[C@H]3CC[C@@H](C)CC3)CN2C(=O)[C@@H]2CN(C(C)(C)C)C[C@H]2c2ccc(F)cc2F)CC1 [Example 18, N-{(3S,5S)-1-{[(3S,4R)-1-tert-butyl-4-(2,4-difluorophenyl)pyrrolidin-3-yl]carbonyl}-5-[(4-methylpiperazin-1-yl)carbonyl]pyrrolidin-3-yl}-2,2-dimethyl-N-(cis-4-methylcyclohexyl)propanamide]"
5,0.1 to 10,"CN1CCN(C(=O)[C@@H]2C[C@H](N(C(=O)C(C)(C)CO)[C@H]3CC[C@@H](C)CC3)CN2C(=O)[C@@H]2CN(C(C)(C)C)C[C@H]2c2ccc(Cl)cc2)CC1 [Example 19, N-{(3S,5S)-1-{[(3S,4R)-1-tert-butyl-4-(4-chlorophenyl)pyrrolidin-3-yl]carbonyl}-5-[(4-methylpiperazin-1-yl)carbonyl]pyrrolidin-3-yl}-3-hydroxy-2,2-dimethyl-N-(cis-4-methylcyclohexyl)propanamide]"
6,0.1 to 10,"CN1CCN(C(=O)[C@@H]2C[C@H](N(C(=O)C(C)(C)CO)[C@H]3CC[C@@H](C)CC3)CN2C(=O)[C@@H]2CN(C(C)(C)C)C[C@H]2c2ccc(F)cc2F)CC1 [Example 20, N-{(3S,5S)-1-{[(3S,4R)-1-tert-butyl-4-(2,4-difluorophenyl)pyrrolidin-3-yl]carbonyl}-5-[(4-methylpiperazin-1-yl)carbonyl]pyrrolidin-3-yl}-3-hydroxy-2,2-dimethyl-N-(cis-4-methylcyclohexyl)propanamide]"
7,0.1 to 10,"CN1CCN(C(=O)[C@@H]2C[C@H](N(C(=O)[C@@H]3CCCO3)[C@H]3CC[C@@H](C)CC3)CN2C(=O)[C@@H]2CN(C(C)(C)C)C[C@H]2c2ccc(F)cc2F)CC1 [Example 21, (2S)-N-{(3S,5S)-1-{[(3S,4R)-1-tert-butyl-4-(2,4-difluorophenyl)pyrrolidin-3-yl]carbonyl}-5-[(4-methylpiperazin-1-yl)carbonyl]pyrrolidin-3-yl}-N-(cis-4-methylcyclohexyl)tetrahydrofuran-2-carboxamide]"
8,0.1 to 10,"CCN1CCN(C(=O)[C@@H]2C[C@H](N(C(=O)[C@@H]3CCCO3)[C@H]3CC[C@@H](C)CC3)CN2C(=O)[C@@H]2CN(C(C)(C)C)C[C@H]2c2ccc(Cl)cc2)CC1 [Example 22, (2S)-N-{(3S,5S)-1-{[(3S,4R)-1-tert-butyl-4-(4-chlorophenyl)pyrrolidin-3-yl]carbonyl}-5-[(4-ethylpiperazin-1-yl)carbonyl]pyrrolidin-3-yl}-N-(cis-4-methylcyclohexyl)tetrahydrofuran-2-carboxamide]"
9,0.1 to 10,"CC(C)N1CCN(C(=O)[C@@H]2C[C@H](N(C(=O)[C@@H]3CCCO3)[C@H]3CC[C@@H](C)CC3)CN2C(=O)[C@@H]2CN(C(C)(C)C)C[C@H]2c2ccc(Cl)cc2)CC1 [Example 23, (2S)-N-{(3S,5S)-1-{[(3S,4R)-1-tert-butyl-4-(4-chlorophenyl)pyrrolidin-3-yl]carbonyl}-5-[(4-isopropylpiperazin-1-yl)carbonyl]pyrrolidin-3-yl}-N-(cis-4-methylcyclohexyl)tetrahydrofuran-2-carboxamide]"
10,0.1 to 10,"CN1CCN(C(=O)[C@@H]2C[C@H](N(C(=O)c3ccoc3)[C@H]3CC[C@@H](C)CC3)CN2C(=O)[C@@H]2CN(C(C)(C)C)C[C@H]2c2ccc(F)cc2F)CC1 [Example 24, N-{(3S,5S)-1-{[(3S,4R)-1-tert-butyl-4-(2,4-difluorophenyl)pyrrolidin-3-yl]carbonyl}-5-[(4-methylpiperazin-1-yl)carbonyl]pyrrolidin-3-yl}-N-(cis-4-methylcyclohexyl)-3-furamide]"
11,0.1 to 10,"CN1CCN(C(=O)[C@@H]2C[C@H](N(C(=O)C(C)(C)C)C3CCC(F)(F)CC3)CN2C(=O)[C@@H]2CN(C(C)(C)C)C[C@H]2c2ccc(Cl)cc2)CC1 [Example 26, N-{(3S,5S)-1-{[(3S,4R)-1-tert-butyl-4-(4-chlorophenyl)pyrrolidine-3-yl]carbonyl}-5-[(4-methylpiperazin-1-yl)carbonyl]pyrrolidin-3-yl}-N-(4,4-difluorocyclohexyl)-2,2-dimethylpropanamide]"
12,100 to 1000,"CCN1CCN(C(=O)[C@@H]2C[C@H](N(C(C)=O)C3CCC(F)(F)CC3)CN2C(=O)[C@@H]2CN(C(C)(C)C)C[C@H]2c2ccc(Cl)cc2)CC1 [Example 28, N-{(3S,5S)-1-{[(3S,4R)-1-tert-butyl-4-(4-chlorophenyl)pyrrolidin-3-yl]carbonyl}5-[(4-ethylpiperazin-1-yl)carbonyl]pyrrolidin-3-yl}-N-(4,4-difluorocyclohexyl)acetamide]"
13,100 to 1000,"CC(=O)N(C1CCC(F)(F)CC1)[C@H]1C[C@@H](C(=O)N2CCN(C(C)C)CC2)N(C(=O)[C@@H]2CN(C(C)(C)C)C[C@H]2c2ccc(Cl)cc2)C1 [Example 29, N-{(3S,5S)-1-{[(3S,4R)-1-tert-butyl-4-(4-chlorophenyl)pyrrolidin-3-yl]carbonyl}5-[(4-isopropylpiperazin-1-yl)carbonyl]pyrrolidin-3-yl}-N-(4,4-difluorocyclohexyl)acetamide]"
14,0.1 to 10,"CN1CCN(C(=O)[C@@H]2C[C@H](N(C(=O)C(C)(C)C)C3CCC(F)(F)CC3)CN2C(=O)[C@@H]2CN(C(C)(C)C)C[C@H]2c2ccc(F)cc2F)CC1 [Example 30, N-{(3S,5S)-1-{[(3S,4R)-1-tert-butyl-4-(2,4-difluorophenyl)pyrrolidin-3-yl]carbonyl}-5-[(4-methylpiperazin-1-yl)carbonyl]pyrrolidin-3-yl}-N-(4,4-difluorocyclohexyl)-2,2-dimethylpropanamide]"

# Same assay, conditions: specific activities of representative compounds; HEK cell lines expressing MC4R; method A or B, not said which; read-out: EC50
row,EC50 [nM],Compound
1,0.4,"CN1CCN(C(=O)[C@@H]2C[C@H](N(C(=O)[C@@H]3CCCO3)[C@H]3CC[C@@H](C)CC3)CN2C(=O)[C@@H]2CN(C(C)(C)C)C[C@H]2c2ccc(Cl)cc2)CC1 [Example 16, (2S)-N-{(3S,5S)-1-{[(3S,4R)-1-tert-butyl-4-(4-chlorophenyl)pyrrolidin-3-yl]carbonyl}-5-[(4-methylpiperazin-1-yl)carbonyl]pyrrolidin-3-yl}-N-(cis-4-methylcyclohexyl)tetrahydrofuran-2-carboxamide]"
2,6,"CN1CCN(C(=O)[C@@H]2C[C@H](N(C(=O)C(C)(C)C)C3CCC(F)(F)CC3)CN2C(=O)[C@@H]2CN(C(C)(C)C)C[C@H]2c2ccc(Cl)cc2)CC1 [Example 26, N-{(3S,5S)-1-{[(3S,4R)-1-tert-butyl-4-(4-chlorophenyl)pyrrolidine-3-yl]carbonyl}-5-[(4-methylpiperazin-1-yl)carbonyl]pyrrolidin-3-yl}-N-(4,4-difluorocyclohexyl)-2,2-dimethylpropanamide]"

# From patent US8183243B2, “Melanocortin receptor agonists” (LG Life Sciences Ltd., priority 2008, dated 2012)
